Source: PMC8825798 (Communications Biology, 2022)
Values joined by “and” are separate entries in the source; they are usually repeats but may differ in a detail not shown here. Identical values can stand only once. Peptide text beside a SMILES is read from it.

T1: sarbecovirus spike hepta-peptide, wild type (1267Gly-Val-Lys-Leu-His-Tyr-Thr1273) (SARS-CoV-2)
T1 peptide: GVKLHYT


How the values were obtained:
[1] = target: αCOPI-WD40 domain (residues 1-327) (Schizosaccharomyces pombe, UniProt Q96WV5, F197K/I192K/L181K/L185K/L196K); assay: biochemical; type: binding
[2] = target: T1, sarbecovirus spike hepta-peptide, wild …; assay: BLI; conditions: both partners purified

Molecule	Kd ([1]; Equilibrium KD)	Kd ([1]; Kinetic KD)	koff ([1]; pH 6.5) [s⁻¹]	kon ([1]; pH 6.5)	further results
CC(C)C[C@H](NC(=O)[C@H](CCCCN)NC(=O)[C@@H](NC(=O)CN)C(C)C)C(=O)N[C@@H](Cc1c[nH]cn1)C(=O)N[C@@H](C)C(=O)N[C@H](C(=O)O)[C@@H](C)O [GVKLHAT] (H-GVKLHAT-OH)	3770 ± 340 nM	2320 ± 70 nM	0.28 ± 0.003	120.87 ± 3.39 10^3/Ms	–
CC(C)C[C@H](NC(=O)[C@H](CCCCN)NC(=O)[C@@H](NC(=O)CN)C(C)C)C(=O)N[C@@H](Cc1c[nH]cn1)C(=O)N[C@@H](Cc1ccc(O)cc1)C(=O)N[C@@H](C)C(=O)O [GVKLHYA] (H-GVKLHYA-OH)	1130 ± 50 nM	1140 ± 20 nM	0.076 ± 0.001	66.67 ± 0.80 10^3/Ms	–
CC(C)C[C@H](NC(=O)[C@H](CCCCN)NC(=O)[C@@H](NC(=O)CN)C(C)C)C(=O)N[C@@H](Cc1c[nH]cn1)C(=O)N[C@@H](Cc1ccc(O)cc1)C(=O)N[C@@H](CCC(=O)O)C(=O)O [GVKLHYE] (H-GVKLHYE-OH)	310 ± 10 nM	380 ± 10 nM	0.024 ± 0.0003	58.96 ± 0.54 10^3/Ms	–
CC(C)C[C@H](NC(=O)[C@H](CCCCN)NC(=O)[C@@H](NC(=O)CN)C(C)C)C(=O)N[C@@H](Cc1c[nH]cn1)C(=O)N[C@@H](Cc1ccc(O)cc1)C(=O)N[C@@H](CCC(N)=O)C(=O)O [GVKLHYQ] (H-GVKLHYQ-OH)	780 ± 40 nM	1150 ± 10 nM	0.066 ± 0.001	60.05 ± 0.75 10^3/Ms	–
CC(C)C[C@H](NC(=O)[C@H](CCCCN)NC(=O)[C@@H](NC(=O)CN)C(C)C)C(=O)N[C@@H](Cc1c[nH]cn1)C(=O)N[C@@H](Cc1ccc(O)cc1)C(=O)N[C@@H](CCCNC(=N)N)C(=O)O [GVKLHYR] (H-GVKLHYR-OH)	1730 ± 240 nM	1290 ± 40 nM	0.177 ± 0.001	–	–
CC(C)C[C@H](NC(=O)[C@H](CCCCN)NC(=O)[C@@H](NC(=O)CN)C(C)C)C(=O)N[C@@H](Cc1c[nH]cn1)C(=O)N[C@@H](Cc1ccc(O)cc1)C(=O)N[C@H](C(=O)O)[C@@H](C)O [GVKLHYT] (H-GVKLHYT-OH)	4170 nM and 1400 nM	2750 nM and 950 nM	0.145 ± 0.001	152.13 ± 3.45 10^3/Ms	koff ([1]; pH 7.5): 0.25 ± 0.003 s⁻¹; kon ([1]; pH 7.5): 89.96 ± 2.72 10^3/Ms
CC(C)C[C@H](NC(=O)[C@H](CCCCN)NC(=O)[C@@H](NC(=O)CN)C(C)C)C(=O)N[C@@H](Cc1c[nH]cn1)C(=O)N[C@@H](Cc1ccc(O)cc1)C(=O)N[C@H](C(=O)O)C(C)C [GVKLHYV] (H-GVKLHYV-OH)	3200 ± 40 nM	2060 ± 50 nM	0.212 ± 0.002	102.67 ± 2.61 10^3/Ms	–
CC(C)C[C@H](NC(=O)[C@H](CCCCN)NC(=O)[C@@H](NC(=O)CN)C(C)C)C(=O)N[C@@H](CCCCN)C(=O)N[C@@H](Cc1ccc(O)cc1)C(=O)N[C@H](C(=O)O)[C@@H](C)O [GVKLKYT] (H-GVKLKYT-OH)	–	2710 nM	–	–	koff ([1]; pH 7.5): 0.184 s⁻¹; kon ([1]; pH 7.5): 67.3 ± 1.45 10^3/Ms
GVALAYT	–	–	–	–	Binding to αCOPI-WD40 (in words) ([1]; pH 6.5): does not demonstrate any substantial binding
GVALHYT	–	–	–	–	Binding to αCOPI-WD40 (in words) ([1]; pH 6.5): abolished binding
GVKLAYT	–	–	–	–	Binding to αCOPI-WD40 (in words) ([1]; pH 6.5): abolished binding
KEVYLHG	–	–	–	–	Binding to αCOPI-WD40 (in words) ([1]; pH 6.5): weak binding
VLKTYHG	–	–	–	–	Binding to αCOPI-WD40 (in words) ([1]; pH 7.5): no detectable interaction
αCOPI-WD40 domain (residues 1-327) from Schizosaccharomyces pombe (domain or fragment) MEMLTKFESRSSRAKGVAFHPTQPWILTSLHNGRIQLWDYRMGTLLDRFDGHDGPVRGIAFHPTQPLFVSGGDDYKVNVWNYKSRKLLFSLCGHMDYVRVCTFHHEYPWILSCSDDQTIRIWNWQSRNCIAILTGHSHYVMCAAFHPSEDLIVSASLDQTVRVWDISGLRMKNAAPVSMSKEDQKAQAHNSKSNDKKGSTDAIVKFVLEGHDRGVNWCAFHPTLPLILSAGDDRLVKLWRMTASKAWEVDTCRGHFNNVSCCLFHPHQELILSASEDKTIRVWDLNRRTAVQTFRRDNDRFWFITVHPKLNLFAAAHDSGVMVFKLE	–	–	–	–	koff [2]: 0.145 s⁻¹ and 0.25 s⁻¹; kon [2]: 152000 M⁻¹ s⁻¹ and 90000 M⁻¹ s⁻¹
